Legend:
[1] = Fluorescent hydrogel phase glucose responsive assay (10 mM PBS, pH 7.4, 310 K); conditions: 20 mM D-glucose, Ex 480/Emmax 520 nm
[2] = Fluorescent solution phase glucose responsive assay (pH 7.4, 298 K)
Procedure: Fluorescence spectroscopy was performed on either a HORIBA Duetta or BMG Labtech CLARIOstar plus plate reader. Emission spectra were obtained using the appropriate excitation wavelength and at a temperature of either 298 or 310 K and at pH 7.4 unless otherwise stated. Data collection and analysis were performed using EzSpec software by HORIBA or CLARIOstar MARS software by BMG Labtech. Further analysis and processing were performed in Microsoft Excel.
A solution of GBM and FIM at the required concentrations were created in the appropriate media. The emission spectrum of the assay was then acquired by exciting at the designated excitation wavelength to obtain the baseline emission intensity for the assay. Aliquots of 2 M D-glucose (in the same media) were then added to give the required final glucose concentrations (e.g. 15 μL of 2 M D-glucose in 3 mL gives a final D-glucose concentration of 10 mM) and the assay allowed to reach equilibration. The emission spectra were collected after each addition of D-glucose and compared to the original baseline emission, monitoring at the typical emission maximum (Emmax), and the percentage increase or decrease recorded. Emission spectra acquired on either a Horiba Duetta fluorometer or Clariostar plus plate reader.
The glucose responsive fluorescence emission for different combinations of glucose binding molecules (GBM) and fluorescent inhibitor molecules (FIM) at various concentrations and in various media was tested as described above. All results obtained at pH 7.4 and 298 K unless otherwise stated.
All results obtained at pH 7.4 and 298 K unless otherwise stated.
Table 4 provides the composition of the assay media used as the code assigned to each media as used in Tables 1 to 3.

[3] = Fluorescence lifetime glucose responsive assay (10 mM PBS, pH 7.4, 298 K); conditions: Ex 450 nm
[4] = GBM30 100 uM, FIM 10 uM, hydrogel H (amino azide dextran/PEG)
[5] = 5 mM D-glucose, GBM15 50 uM, FIM 5 uM, Ex 470/Emmax 520 nm, medium B (10 mM PBS)
[6] = 10 mM D-glucose, GBM15 50 uM, FIM 5 uM, Ex 470/Emmax 520 nm, medium B (10 mM PBS)
[7] = 20 mM D-glucose, GBM15 50 uM, FIM 5 uM, Ex 470/Emmax 520 nm, medium B (10 mM PBS)
[8] = 5 mM glucose, GBM15 20 uM, FIM 5 uM
[9] = 20 mM glucose, GBM15 20 uM, FIM 5 uM
[10] = 40 mM glucose, GBM15 20 uM, FIM 5 uM

## C[N+](C)(C)[C@@H](CCCCn1cc(C[C@H](NC(=O)OC[C@@H]2[C@@H]3CCC#CCC[C@@H]32)C(=O)NCCOCCOCCn2cc(CNC(=O)c3ccc4c(c3)C(=O)OC43c4ccc(N)c(S(=O)(=O)[O-])c4Oc4c3ccc(N)c4S(=O)(=O)O)nn2)nn1)C(=O)NCC(CO[C@@H]1O[C@H](CO)[C@@H](O)[C@H](O)[C@H]1O)c1ccccc1 (stereo partly shown) [FIM60]
[1]; GBM15 50 uM, FIM 50 uM, hydrogel G (amino dextran/PEG/PEG3-azide)
  Change in Emmax for FIM at a particular D-glucose concentration: 50%
[1]; [4]
  Change in Emmax for FIM at a particular D-glucose concentration: 40%
[2]; 5 mM D-glucose, GBM7 50 uM, FIM 5 uM, Ex 470/Emmax 520 nm, medium B (10 mM PBS)
  Change in Emmax for FIM at a particular D-glucose concentration: 220%
[2]; [5]
  Change in Emmax for FIM at a particular D-glucose concentration: 80%
[2]; 5 mM D-glucose, GBM30 50 uM, FIM 1 uM, Ex 470/Emmax 520 nm, medium B (10 mM PBS)
  Change in Emmax for FIM at a particular D-glucose concentration: 120%
[2]; 5 mM D-glucose, GBM40 20 uM, FIM 5 uM, Ex 470/Emmax 520 nm, medium B (10 mM PBS)
  Change in Emmax for FIM at a particular D-glucose concentration: 250%
[2]; 5 mM D-glucose, GBM40 20 uM, FIM 5 uM, Ex 470/Emmax 520 nm, medium C (human serum)
  Change in Emmax for FIM at a particular D-glucose concentration: 250%
[2]; 5 mM D-glucose, GBM43 40 uM, FIM 5 uM, Ex 450/Emmax 520 nm, medium B (10 mM PBS)
  Change in Emmax for FIM at a particular D-glucose concentration: 80%
[2]; [6]
  Change in Emmax for FIM at a particular D-glucose concentration: 130%
[2]; 10 mM D-glucose, GBM30 50 uM, FIM 1 uM, Ex 470/Emmax 520 nm, medium B (10 mM PBS)
  Change in Emmax for FIM at a particular D-glucose concentration: 170%
[2]; 10 mM D-glucose, GBM43 40 uM, FIM 5 uM, Ex 450/Emmax 520 nm, medium B (10 mM PBS)
  Change in Emmax for FIM at a particular D-glucose concentration: 125%
[2]; 20 mM D-glucose, GBM7 50 uM, FIM 5 uM, Ex 470/Emmax 520 nm, medium B (10 mM PBS)
  Change in Emmax for FIM at a particular D-glucose concentration: 310%
[2]; [7]
  Change in Emmax for FIM at a particular D-glucose concentration: 200%
[2]; 20 mM D-glucose, GBM30 50 uM, FIM 1 uM, Ex 470/Emmax 520 nm, medium B (10 mM PBS)
  Change in Emmax for FIM at a particular D-glucose concentration: 200%
[2]; 20 mM D-glucose, GBM40 20 uM, FIM 5 uM, Ex 470/Emmax 520 nm, medium B (10 mM PBS)
  Change in Emmax for FIM at a particular D-glucose concentration: 450%
[2]; 20 mM D-glucose, GBM40 20 uM, FIM 5 uM, Ex 470/Emmax 520 nm, medium C (human serum)
  Change in Emmax for FIM at a particular D-glucose concentration: 430%
[2]; 20 mM D-glucose, GBM43 40 uM, FIM 5 uM, Ex 450/Emmax 520 nm, medium B (10 mM PBS)
  Change in Emmax for FIM at a particular D-glucose concentration: 165%
[2]; 40 mM D-glucose, GBM7 50 uM, FIM 5 uM, Ex 470/Emmax 520 nm, medium B (10 mM PBS)
  Change in Emmax for FIM at a particular D-glucose concentration: 400%
[2]; 40 mM D-glucose, GBM15 50 uM, FIM 5 uM, Ex 470/Emmax 520 nm, medium B (10 mM PBS)
  Change in Emmax for FIM at a particular D-glucose concentration: 220%
[2]; 40 mM D-glucose, GBM30 50 uM, FIM 1 uM, Ex 470/Emmax 520 nm, medium B (10 mM PBS)
  Change in Emmax for FIM at a particular D-glucose concentration: 220%
[2]; 40 mM D-glucose, GBM43 40 uM, FIM 5 uM, Ex 450/Emmax 520 nm, medium B (10 mM PBS)
  Change in Emmax for FIM at a particular D-glucose concentration: 200%
[2]; 80 mM D-glucose, GBM40 20 uM, FIM 5 uM, Ex 470/Emmax 520 nm, medium B (10 mM PBS)
  Change in Emmax for FIM at a particular D-glucose concentration: 600%
[2]; 80 mM D-glucose, GBM40 20 uM, FIM 5 uM, Ex 470/Emmax 520 nm, medium C (human serum)
  Change in Emmax for FIM at a particular D-glucose concentration: 500%
[2]; 80 mM D-glucose, GBM43 40 uM, FIM 5 uM, Ex 450/Emmax 520 nm, medium B (10 mM PBS)
  Change in Emmax for FIM at a particular D-glucose concentration: 230%

## C#CCCC(=O)N[C@@H](CCCCNC(=O)Cn1cc(CNC(=O)c2ccc3c(c2)C(=O)OC32c3ccc(O)cc3Oc3cc(O)ccc32)nn1)C(=O)NCCOCCOCCOCCOCc1cn(CCO[C@@H]2O[C@H](CO)[C@@H](O)[C@H](O)[C@H]2O)nn1 [FIM66]
[1]; [4]
  Change in Emmax for FIM at a particular D-glucose concentration: 140%
[2]; [5]
  Change in Emmax for FIM at a particular D-glucose concentration: 250%
[2]; [6]
  Change in Emmax for FIM at a particular D-glucose concentration: 255%
[2]; [7]
  Change in Emmax for FIM at a particular D-glucose concentration: 260%

## CC(C)(C)OC(=O)NC(Cc1cn(CCCCC(C(=O)NCC(COC2OC(CO)C(O)C(O)C2O)c2ccccc2)[N+](C)(C)C)nn1)C(=O)NCCOCCOCCn1cc(-c2ccnc(-c3cc(-c4cn(CCOCCOc5cc(S(=O)(=O)[O-])c6ccc7c(S(=O)(=O)[O-])cc(S(=O)(=O)[O-])c8ccc5c6c87)nn4)ccn3)c2)nn1.[Ru+2].c1ccc(-c2ccccn2)nc1.c1ccc(-c2ccccn2)nc1 (stereo not shown) [FIM56]
[3]; [8]
  Fluorescence lifetime component τ1 for FIM and GBM at a particular glucose concentration: 695 ns
  Fluorescence lifetime component τ2 for FIM and GBM at a particular glucose concentration: 3040 ns
[3]; [9]
  Fluorescence lifetime component τ1 for FIM and GBM at a particular glucose concentration: 660 ns
  Fluorescence lifetime component τ2 for FIM and GBM at a particular glucose concentration: 3210 ns
[3]; [10]
  Fluorescence lifetime component τ1 for FIM and GBM at a particular glucose concentration: 625 ns
  Fluorescence lifetime component τ2 for FIM and GBM at a particular glucose concentration: 3260 ns
[3]; FIM 5 uM
  Lifetime component τ1 of FIM only: 520 ns
  Lifetime component τ2 of FIM only: 3620 ns
[3]; GBM15 20 uM, FIM 5 uM
  Lifetime component τ1 of FIM after GBM addition: 650 ns
  Lifetime component τ2 of FIM after GBM addition: 2500 ns

## CN1c2cc3c(cc2C(CS(=O)(=O)[O-])=CC1(C)C)C(c1ccc(C(=O)NCc2cn(CCOCCOCCOCCNC(=O)[C@H](Cc4cn(CCOCCOCCOCCOc5ccc(CCO[C@@H]6O[C@H](CO)[C@@H](O)[C@H](O)[C@H]6O)cc5)nn4)NC(=O)OC(C)(C)C)nn2)cc1C(=O)[O-])=c1cc2c(cc1O3)=[N+](C)C(C)(C)C=C2CS(=O)(=O)[O-].[Na+].[Na+] [FIM10]
[3]; 20 mM glucose, GBM40 5 uM, FIM 10 uM
  Fluorescence lifetime component τ1 for FIM and GBM at a particular glucose concentration: 580 ns
[3]; FIM 10 uM
  Lifetime component τ1 of FIM only: 575 ns
[3]; GBM40 5 uM, FIM 10 uM
  Lifetime component τ1 of FIM after GBM addition: 620 ns
[2]; 5 mM D-glucose, GBM42 20 uM, FIM 5 uM, Ex 560/Emmax 610 nm, medium B (10 mM PBS)
  Change in Emmax for FIM at a particular D-glucose concentration: 65%
[2]; 10 mM D-glucose, GBM42 20 uM, FIM 5 uM, Ex 560/Emmax 610 nm, medium B (10 mM PBS)
  Change in Emmax for FIM at a particular D-glucose concentration: 85%
[2]; 20 mM D-glucose, GBM42 20 uM, FIM 5 uM, Ex 560/Emmax 610 nm, medium B (10 mM PBS)
  Change in Emmax for FIM at a particular D-glucose concentration: 105%
[2]; 40 mM D-glucose, GBM40 5 uM, FIM 10 uM, Ex 560/Emmax 610 nm, medium B (10 mM PBS)
  Change in Emmax for FIM at a particular D-glucose concentration: −75%
[2]; 40 mM D-glucose, GBM42 20 uM, FIM 5 uM, Ex 560/Emmax 610 nm, medium B (10 mM PBS)
  Change in Emmax for FIM at a particular D-glucose concentration: 110%
